Assay results published in US4130709A, “Pleuromutilin glycoside derivatives” (Eli Lilly and Company, priority 1977, dated 1978).
≈ marks a conversion by molar mass, not a printed value. Read-outs that look alike come from different tables or passages of the source.

Tests used:
Assay type in all cases: cell-based
[1] = tested on: Staphylococcus aureus (H-Heatley) NRRL B-314; assay: in vitro turbidometric assay (Autoturb Microbiological Assay System) against Staphylococcus aureus; conditions: nutrient broth pH 7, approximately 4 hours at 37° C., A-40104 factor A as standard
Method: The compounds are conveniently tested against a typical gram-positive organism, Staphylococcus aureus, using a turbidometric assay on a semi-automated system (Autoturb Microbiological Assay System, Elanco) described by N. R. Kuzel and F. W. Kavanagh in J. Pharmaceut. Sci, 60 (5), 764 and 767 (1971). In testing these compounds, the following parameters were used: Staphylococcus aureus (H-Heatley) NRRL B-314 in a nutrient broth medium (pH 7), incubated for approximately 4 hours at 37° C. Test samples and A-40104 factor A, which is used as a standard, were dissolved in water. The standard was presented to the Autoturb carrousel at concentrations of 1.25, 2.50, 3.75, 5.00 and 6.25 mcg/ml. Test compounds were diluted to contain approximately 2.5 to 5.0 mcg of activity per ml, as presented to the carrousel. The units of activity of some of the typical compounds of this invention (R^2 =H in group tested) in this in vitro assay are summarized in Table I

Actinomyces israelii = assay: standard agar-dilution test, anaerobic bacteria; conditions: 24-hour incubation
Clostridium perfringens = assay: microbe, parasite or virus in culture; conditions: 24 h
[2] = tested on: Bacteroides thetaiotaomicron; assay: standard agar-dilution test, anaerobic bacteria; conditions: 24-hour incubation
Method: (§1) Table IV summarizes the activity of typical compounds of this invention, as determined by the standard agar-dilution test.
(§2) *Endpoint read after 24-hour incubation

Clostridium septicum = assay: standard agar-dilution test, anaerobic bacteria; conditions: 24-hour incubation
Method: as §1, §2

Eubacterium aerofaciens = assay: standard agar-dilution test, anaerobic bacteria; conditions: Collinsella aerofaciens
[3] = tested on: Peptococcus asaccharolyticus; assay: standard agar-dilution test, anaerobic bacteria; conditions: Peptoniphilus asaccharolyticus, 24-hour incubation
Peptococcus prevoti = assay: standard agar-dilution test, anaerobic bacteria
[4] = tested on: Peptostreptococcus anaerobius; assay: standard agar-dilution test, anaerobic bacteria; conditions: 24-hour incubation
[5] = tested on: Peptostreptococcus intermedius; assay: standard agar-dilution test, anaerobic bacteria
Bacteroides fragilis 111 = assay: standard agar-dilution test, anaerobic bacteria
[6] = tested on: Bacteroides fragilis 1877; assay: standard agar-dilution test, anaerobic bacteria
[7] = tested on: Bacteroides fragilis 1936B; assay: standard agar-dilution test, anaerobic bacteria
[8] = tested on: Bacteroides melaninogenicus 1856/28; assay: standard agar-dilution test, anaerobic bacteria; conditions: Prevotella intermedia
[9] = tested on: Bacteroides melaninogenicus 2736; assay: standard agar-dilution test, anaerobic bacteria; conditions: Bacteroides melaninogenicus 2736; 24-hour incubation; read-out: MIC
Bacteroides vulgatis = assay: standard agar-dilution test, anaerobic bacteria
Bacteroides corrodens = assay: standard agar-dilution test, anaerobic bacteria; conditions: Eikenella corrodens
Fusobacterium symbiosum = assay: standard agar-dilution test, anaerobic bacteria
[10] = tested on: Fusobacterium necrophorum; assay: standard agar-dilution test, anaerobic bacteria
Spiroplasma citri = assay: in vitro inhibition of Spiroplasma citri measured by a color reaction; design: key to Activity (color reaction): Red (R) includes complete inhibition; red-orange (RO) indicates partial inhibition; yellow (Y) indicates no inhibition
Method: In another important aspect, the compounds of this invention are active against Spiroplasmas. Spiroplasma citri is the causative agent of citrus-stubborn disease; another Spiroplasma, corn-stunt Spiroplasma, affects the growth of corn. Table VII summarizes the in vitro activity of representative compounds of the present invention (R^2 =H in this group) against Spiroplasma citri. In this test, inhibition of S. citri is measured by a color reaction. Red (R) includes complete inhibition; red-orange (RO) indicates partial inhibition; and yellow (Y) indicates no inhibition.

Mycoplasma gallisepticum = assay: in vitro broth-dilution studies, mycoplasma; conditions: Mycoplasmoides gallisepticum
Excerpt: (§3) The minimal inhibitory concentrations (MIC's) of a number of typical compounds of the present invention (R^2 =H in group tested) against various mycoplasma species, as determined by in vitro broth-dilution studies, are summarized in Table V.

Mycoplasma hyorhinis = assay: in vitro broth-dilution studies, mycoplasma
Excerpt: as §3

Mycoplasma synoviae = assay: in vitro broth-dilution studies, mycoplasma; conditions: Mycoplasmopsis synoviae
Excerpt: as §3

[11] = Peptococcus prevoti, 24-hour incubation, read-out: MIC
[12] = Peptostreptococcus intermedius, 24-hour incubation, read-out: MIC
[13] = Bacteroides fragilis 111, 24-hour incubation, read-out: MIC
[14] = Bacteroides fragilis 1877, 24-hour incubation, read-out: MIC
[15] = Bacteroides fragilis 1936B, 24-hour incubation, read-out: MIC
[16] = Bacteroides melaninogenicus 1856/28, 24-hour incubation, read-out: MIC
[17] = Bacteroides vulgatis, 24-hour incubation, read-out: MIC
[18] = Bacteroides corrodens, 24-hour incubation, read-out: MIC
[19] = 24-hour incubation, read-out: MIC
[20] = Eubacterium aerofaciens, 24-hour incubation, read-out: MIC
[21] = Fusobacterium symbiosum, 24-hour incubation, read-out: MIC

## CC[C@]1(C)C[C@@H](OC(=O)CS[C@@H]2O[C@H](COC(C)=O)[C@@H](OC(C)=O)[C@H](OC(C)=O)[C@H]2OC(C)=O)[C@]2(C)[C@H](C)CC[C@]3(CCC(=O)[C@H]32)[C@@H](C)[C@@H]1O [Compound 4, 14-deoxy-14-[(2,3,4,6-tetra-O-acetyl-β-D-glucopyranosyl)thioacetoxy]-19,20-dihydromutilin]
[1]
  Units of Activity: 203 to 220 µg/mg
Actinomyces israelii
  MIC: ≤ 0.5 µg/mL
Clostridium perfringens
  MIC: > 128 µg/mL
[2]
  MIC: 64 µg/mL (≈ 88 µM)
Clostridium septicum
  MIC: 4 µg/mL (≈ 5.5 µM)
Eubacterium aerofaciens; 24 h
  MIC: > 128 µg/mL
[3]
  MIC: ≤ 0.5 µg/mL
Peptococcus prevoti; [11]
  MIC: 8 µg/mL (≈ 11 µM)
[4]
  MIC: 1 µg/mL (≈ 1.38 µM)
[5]; [12]
  MIC: 2 µg/mL (≈ 2.75 µM)
Bacteroides fragilis 111; [13]
  MIC: 32 µg/mL (≈ 44 µM)
[6]; [14]
  MIC: 32 µg/mL (≈ 44 µM)
[7]; [15]
  MIC: 64 µg/mL (≈ 88 µM)
[8]; [16]
  MIC: 8 µg/mL (≈ 11 µM)
[9]
  MIC: 4 µg/mL (≈ 5.5 µM)
Bacteroides vulgatis; [17]
  MIC: 32 µg/mL (≈ 44 µM)
Bacteroides corrodens; [18]
  MIC: 32 µg/mL (≈ 44 µM)
Fusobacterium symbiosum; Fusobacterium, 24 h
  MIC: 128 µg/mL (≈ 176 µM)
[10]; [19]
  MIC: ≤ 0.5 µg/mL
Spiroplasma citri; 0.01 ppm
  Activity (color reaction): Y
Spiroplasma citri; 0.05 ppm
  Activity (color reaction): R
Spiroplasma citri; 0.1 ppm
  Activity (color reaction): R
Spiroplasma citri; 1.0 ppm
  Activity (color reaction): R

## CC[C@]1(C)C[C@@H](OC(=O)CS[C@@H]2O[C@H](CO)[C@@H](O)[C@H](O)[C@H]2O)[C@]2(C)[C@H](C)CC[C@]3(CCC(=O)[C@H]32)[C@@H](C)[C@@H]1O [Compound 5, 14-deoxy-14-[(β-D-glucopyranosyl)thioacetoxy]-19,20-dihydromutilin]
[1]
  Units of Activity: 29 to 31 µg/mg
Actinomyces israelii
  MIC: ≤ 0.5 µg/mL
Clostridium perfringens
  MIC: 8 µg/mL (≈ 14.3 µM)
[2]
  MIC: 64 µg/mL (≈ 115 µM)
Clostridium septicum
  MIC: 32 µg/mL (≈ 57.3 µM)
Eubacterium aerofaciens; [20]
  MIC: 4 µg/mL (≈ 7.16 µM)
[3]
  MIC: 4 µg/mL (≈ 7.16 µM)
Peptococcus prevoti; [11]
  MIC: 2 µg/mL (≈ 3.58 µM)
[4]
  MIC: 8 µg/mL (≈ 14.3 µM)
[5]; [12]
  MIC: 2 µg/mL (≈ 3.58 µM)
Bacteroides fragilis 111; [13]
  MIC: 64 µg/mL (≈ 115 µM)
[6]; [14]
  MIC: 64 µg/mL (≈ 115 µM)
[7]; [15]
  MIC: 128 µg/mL (≈ 229 µM)
[8]; [16]
  MIC: 2 µg/mL (≈ 3.58 µM)
[9]
  MIC: 4 µg/mL (≈ 7.16 µM)
Bacteroides vulgatis; [17]
  MIC: 32 µg/mL (≈ 57.3 µM)
Bacteroides corrodens; [18]
  MIC: 64 µg/mL (≈ 115 µM)
Fusobacterium symbiosum; [21]
  MIC: 16 µg/mL (≈ 28.6 µM)
[10]; [19]
  MIC: 8 µg/mL (≈ 14.3 µM)
Spiroplasma citri; 0.01 ppm
  Activity (color reaction): Y
Spiroplasma citri; 0.05 ppm
  Activity (color reaction): R
Spiroplasma citri; 0.1 ppm
  Activity (color reaction): R
Spiroplasma citri; 1.0 ppm
  Activity (color reaction): R

## C=C[C@]1(C)C[C@@H](OC(=O)CO[C@H]2O[C@H](COC(C)=O)[C@@H](OC(C)=O)[C@H](OC(C)=O)C2=NO)[C@]2(C)[C@H](C)CC[C@]3(CCC(=O)[C@H]32)[C@@H](C)[C@@H]1O [Compound 7, 14-deoxy-14-[(2-deoxy-2-(hydroxyimino)-3,4,6-tri-O-acetyl-α-D-glucopyranosyl)oxyacetoxy]mutilin]
[1]
  Units of Activity: 11 to 12 µg/mg
Actinomyces israelii
  MIC: 64 µg/mL (≈ 94.2 µM)
Clostridium perfringens
  MIC: > 128 µg/mL
[2]
  MIC: > 128 µg/mL
Clostridium septicum
  MIC: > 128 µg/mL
Eubacterium aerofaciens; 24 h
  MIC: > 128 µg/mL
[3]
  MIC: 64 µg/mL (≈ 94.2 µM)
Peptococcus prevoti; 24 h
  MIC: 128 µg/mL (≈ 188 µM)
[4]
  MIC: 64 µg/mL (≈ 94.2 µM)
[5]; Peptostreptococcus, 24 h
  MIC: > 128 µg/mL
Bacteroides fragilis 111; Bacteroides fragilis, 111, 24 h
  MIC: > 128 µg/mL
[6]; Bacteroides fragilis, 1877, 24 h
  MIC: > 128 µg/mL
[7]; Bacteroides fragilis, 1936B, 24 h
  MIC: > 128 µg/mL
[8]; 1856/28, 24 h
  MIC: > 128 µg/mL
[9]
  MIC: 32 µg/mL (≈ 47.1 µM)
Bacteroides vulgatis; Bacteroides, 24 h
  MIC: > 128 µg/mL
Bacteroides corrodens; 24 h
  MIC: > 128 µg/mL
Fusobacterium symbiosum; Fusobacterium, 24 h
  MIC: > 128 µg/mL
[10]; 24 h
  MIC: > 128 µg/mL
Mycoplasma gallisepticum
  MIC: 0.78 µg/mL (≈ 1.15 µM)
Mycoplasma hyorhinis
  MIC: 0.78 µg/mL (≈ 1.15 µM)
Mycoplasma synoviae
  MIC: > 6.25 µg/mL

## C=C[C@]1(C)C[C@@H](OC(=O)CS[C@@H]2O[C@H](CO)[C@@H](O)[C@H](O)[C@H]2O)[C@]2(C)[C@H](C)CC[C@]3(CCC(=O)[C@H]32)[C@@H](C)[C@@H]1O [Compound 10, 14-deoxy-14-[(β-D-glucopyranosyl)thioacetoxy]mutilin]
[1]
  Units of Activity: 36 µg/mg
Actinomyces israelii
  MIC: 2 µg/mL (≈ 3.59 µM)
Clostridium perfringens
  MIC: 64 µg/mL (≈ 115 µM)
[2]
  MIC: 64 µg/mL (≈ 115 µM)
Clostridium septicum
  MIC: 64 µg/mL (≈ 115 µM)
Eubacterium aerofaciens; [20]
  MIC: 16 µg/mL (≈ 28.7 µM)
[3]
  MIC: 16 µg/mL (≈ 28.7 µM)
Peptococcus prevoti; [11]
  MIC: 16 µg/mL (≈ 28.7 µM)
[4]
  MIC: ≤ 0.5 µg/mL
[5]; [12]
  MIC: 4 µg/mL (≈ 7.18 µM)
Bacteroides fragilis 111; [13]
  MIC: 128 µg/mL (≈ 230 µM)
[6]; [14]
  MIC: 64 µg/mL (≈ 115 µM)
[7]; [15]
  MIC: 64 µg/mL (≈ 115 µM)
[8]; [16]
  MIC: > 128 µg/mL
[9]
  MIC: 32 µg/mL (≈ 57.5 µM)
Bacteroides vulgatis; [17]
  MIC: 64 µg/mL (≈ 115 µM)
Bacteroides corrodens; [18]
  MIC: 64 µg/mL (≈ 115 µM)
Fusobacterium symbiosum; [21]
  MIC: 64 µg/mL (≈ 115 µM)
[10]; [19]
  MIC: 2 µg/mL (≈ 3.59 µM)
Mycoplasma gallisepticum
  MIC: 1.56 µg/mL (≈ 2.8 µM)
Mycoplasma hyorhinis
  MIC: 1.56 µg/mL (≈ 2.8 µM)
Mycoplasma synoviae
  MIC: 3.12 µg/mL (≈ 5.6 µM)

## C=C[C@]1(C)C[C@@H](OC(=O)CO[C@H]2O[C@H](COCc3ccccc3)[C@@H](OCc3ccccc3)[C@H](OCc3ccccc3)[C@H]2OCc2ccccc2)[C@]2(C)[C@H](C)CC[C@]3(CCC(=O)[C@H]32)[C@@H](C)[C@@H]1O [Example 1, 14-deoxy-14-[(2,3,4,6-tetra-O-benzyl-α-D-glucopyranosyl)oxyacetoxy]mutilin]
Mycoplasma gallisepticum
  MIC: 25 µg/mL (≈ 27.7 µM)
Mycoplasma hyorhinis
  MIC: 50 µg/mL (≈ 55.5 µM)
Mycoplasma synoviae
  MIC: 50 µg/mL (≈ 55.5 µM)
